Data as given in ChEMBL document CHEMBL1201862, “PubChem BioAssay data set” (2004).
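96-well plates; 48 h exposure; 5 concentrations. Endpoints by linear interpolation between flanking doses. Not reached: highest tested concentration assigned. Abbreviation: GI50, concentration required for 50% inhibition of growth.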 Activity calls are given as the source filed them. No stated cut-off is given here; in the data, active = GI50 up to about 1.1 µM and inactive = higher.

Columns and labels:
Assay in all cases: NCI tumour cell line growth inhibition, 48 h
K562 = tested on: K562
DU-145 = tested on: DU-145
UACC-257 = tested on: UACC-257
SW-620 = tested on: SW-620
MOLT-4 = tested on: MOLT-4
OVCAR-3 = tested on: OVCAR-3
SK-MEL-5 = tested on: SK-MEL-5
786-0 = tested on: 786-0
PC-3 = tested on: PC-3
COLO 205 = tested on: COLO 205
MDA-MB-435 = tested on: MDA-MB-435
U-251 = tested on: U-251
TK-10 = tested on: TK-10
Malme-3M = tested on: Malme-3M
MCF7 = tested on: MCF7
HL-60 = tested on: HL-60
MDA-MB-231 = tested on: MDA-MB-231
HOP-62 = tested on: HOP-62
T47D = tested on: T47D
HT-29 = tested on: HT-29

Measured: GI50

O=c1oc2ccc3ccccc3c2cc1-c1cn2ccsc2n1
inactive: K562 17.3 µM | DU-145 19.9 µM | UACC-257 24.8 µM | SW-620 16.8 µM | MOLT-4 3.41 µM | OVCAR-3 17.9 µM | SK-MEL-5 15.4 µM | 786-0 17.9 µM | PC-3 26.7 µM | COLO 205 16.1 µM | MDA-MB-435 22.4 µM | U-251 71.9 µM | TK-10 17.9 µM | Malme-3M 21.2 µM | MCF7 3.03 µM | HL-60 17.8 µM | MDA-MB-231 14.1 µM | HOP-62 34.5 µM | T47D 13 µM | HT-29 18 µM
